According to ChEMBL document CHEMBL1134533, “Design, synthesis, computational prediction, and biological evaluation of ester soft drugs as inhibitors of dihydrofolate reductase from Pneumocystis carinii” (J Med Chem, 2001):

Experiments:
Dihydrofolate reductase [1] = target: T1, Dihydrofolate reductase (Rattus norvegicus, UniProt Q920D2)
T1 sequence (Q920D2 whole entry): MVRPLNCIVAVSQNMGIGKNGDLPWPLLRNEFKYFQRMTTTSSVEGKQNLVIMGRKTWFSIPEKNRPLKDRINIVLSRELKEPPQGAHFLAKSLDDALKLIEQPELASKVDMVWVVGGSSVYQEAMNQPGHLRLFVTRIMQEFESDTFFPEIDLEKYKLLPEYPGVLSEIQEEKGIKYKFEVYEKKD
Description: Inhibitory concentration against dihydrofolate reductase DHFR from rat liver.

[2] = target: T2, Bifunctional dihydrofolate reductase-thymidylate synthase (Toxoplasma gondii, UniProt Q07422)
T2 sequence (Q07422 whole entry): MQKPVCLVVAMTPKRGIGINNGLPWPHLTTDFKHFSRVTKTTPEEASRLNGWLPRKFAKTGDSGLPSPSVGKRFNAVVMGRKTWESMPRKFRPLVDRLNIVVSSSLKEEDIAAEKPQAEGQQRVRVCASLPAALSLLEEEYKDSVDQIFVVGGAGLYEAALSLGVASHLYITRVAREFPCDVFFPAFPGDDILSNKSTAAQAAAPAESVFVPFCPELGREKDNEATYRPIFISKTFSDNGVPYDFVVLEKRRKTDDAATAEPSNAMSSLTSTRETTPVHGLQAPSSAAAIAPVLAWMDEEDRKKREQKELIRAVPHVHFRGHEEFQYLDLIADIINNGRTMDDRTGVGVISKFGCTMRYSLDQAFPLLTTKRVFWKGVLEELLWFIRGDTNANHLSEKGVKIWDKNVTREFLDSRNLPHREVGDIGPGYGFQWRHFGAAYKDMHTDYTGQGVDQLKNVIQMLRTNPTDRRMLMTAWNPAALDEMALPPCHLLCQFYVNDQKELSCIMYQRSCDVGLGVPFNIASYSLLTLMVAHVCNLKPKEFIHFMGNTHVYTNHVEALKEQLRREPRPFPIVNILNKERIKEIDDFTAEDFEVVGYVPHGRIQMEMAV
Description: Inhibitory concentration against dihydrofolate reductase DHFR from Toxoplasma gondii

Dihydrofolate reductase [3] = target: T3, Dihydrofolate reductase (Pneumocystis carinii, UniProt P16184)
T3 sequence (P16184 whole entry): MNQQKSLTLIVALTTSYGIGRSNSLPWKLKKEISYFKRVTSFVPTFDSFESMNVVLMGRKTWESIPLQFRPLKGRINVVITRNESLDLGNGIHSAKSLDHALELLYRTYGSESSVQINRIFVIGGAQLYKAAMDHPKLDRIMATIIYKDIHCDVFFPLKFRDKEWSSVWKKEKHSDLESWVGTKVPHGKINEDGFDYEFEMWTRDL
Description: Inhibitory concentration against dihydrofolate reductase dihydrofolate reductase from Pneumocystis carinii.

[4] = target: T4, Bifunctional dihydrofolate reductase-thymidylate synthase (Toxoplasma gondii) (UniProt Q07422); assay: Relative activity against dihydrofolate reductase DHFR from Toxoplasma gondii
T4 sequence (whole entry): T2 sequence (Q07422 whole entry)

[5] = target: T5, Dihydrofolate reductase (Rattus norvegicus) (UniProt Q920D2); assay: Inhibitory activity against dihydrofolate reductase DHFR from rat liver at 104 uM concentration
T5 sequence (whole entry): T1 sequence (Q920D2 whole entry)

[6] = target: T6, Dihydrofolate reductase (Pneumocystis carinii) (UniProt P16184); assay: Inhibitory activity against dihydrofolate reductase dihydrofolate reductase from Pneumocystis carinii. at 104 uM concentration
T6 sequence (whole entry): T3 sequence (P16184 whole entry)

[7] = target: T4, Bifunctional dihydrofolate reductase-thymidylate synthase (Toxoplasma gondii); assay: Inhibitory activity against dihydrofolate reductase DHFR from Toxoplasma gondii at 104 uM concentration
[8] = Ratio of the IC50 values for rlDHFR of the metabolite and pcDHFR of the soft drug
[9] = target: T5, Dihydrofolate reductase (Rattus norvegicus); assay: Inhibitory activity against dihydrofolate reductase DHFR from rat liver at 51 uM concentration
[10] = target: T6, Dihydrofolate reductase (Pneumocystis carinii); assay: Inhibitory activity against dihydrofolate reductase dihydrofolate reductase from Pneumocystis carinii. at 51 uM concentration
[11] = target: T4, Bifunctional dihydrofolate reductase-thymidylate synthase (Toxoplasma gondii); assay: Inhibitory activity against dihydrofolate reductase DHFR from Toxoplasma gondii at 51 uM concentration
[12] = target: T5, Dihydrofolate reductase (Rattus norvegicus); assay: Inhibitory activity against dihydrofolate reductase DHFR from rat liver at 32 uM concentration
[13] = target: T6, Dihydrofolate reductase (Pneumocystis carinii); assay: Inhibitory activity against dihydrofolate reductase dihydrofolate reductase from Pneumocystis carinii. at 32 uM concentration
[14] = target: T4, Bifunctional dihydrofolate reductase-thymidylate synthase (Toxoplasma gondii); assay: Inhibitory activity against dihydrofolate reductase DHFR from Toxoplasma gondii at 32 uM concentration

Compound `Cc1c(CO)cnc2nc(N)nc(N)c12` has an IC50 (Dihydrofolate reductase [1]) of 8500 nM and an IC50 [2] of 3200 nM.
`COc1cc(NCc2ccc3nc(N)nc(N)c3c2C)cc(OC)c1OC` [TRIMETREXATE] showed an IC50 (Dihydrofolate reductase [1]) of 8 nM.
Compound `COc1cc(OC)cc(C(=O)OCc2ccc3nc(N)nc(N)c3c2)c1` has an IC50 (Dihydrofolate reductase [3]) of 460 nM, an IC50 (Dihydrofolate reductase [1]) of 350 nM and an IC50 [2] of 150 nM.
`COc1ccc(OC)c(Cc2cnc3nc(N)nc(N)c3c2C)c1` [PIRITREXIM] showed an IC50 (Dihydrofolate reductase [1]) of 4.4 nM.
`Nc1nc(N)c2nc(COC(=O)c3ccccc3)cnc2n1` gave an IC50 (Dihydrofolate reductase [3]) of 9800 nM, an IC50 (Dihydrofolate reductase [1]) of 7000 nM and an IC50 [2] of 5800 nM.
`COc1ccc(OC)c(C(=O)OCc2ccc3nc(N)nc(N)c3c2)c1` showed an IC50 (Dihydrofolate reductase [3]) of 2400 nM, an IC50 (Dihydrofolate reductase [1]) of 420 nM and an IC50 [2] of 220 nM.
Work on `COc1cc(C(=O)OCc2ccc3nc(N)nc(N)c3c2)cc(OC)c1OC` yielded a Relative IC50 [4] of 0.51, an IC50 (Dihydrofolate reductase [3]) of 560 nM and an IC50 (Dihydrofolate reductase [1]) of 26 nM. The IC50 [2] was 50 nM.
Compound `Nc1nc(N)c2cc(CNc3ccccc3)ccc2n1` has an IC50 (Dihydrofolate reductase [3]) of 980 nM, an IC50 (Dihydrofolate reductase [1]) of 440 nM and an IC50 [2] of 100 nM.
`Nc1nc(N)c2cc(COC(=O)Cc3ccccc3)ccc2n1` showed an IC50 (Dihydrofolate reductase [1]) of 2300 nM and an IC50 [2] of 1900 nM.
In the case of `Nc1nc(N)c2cc(CO)cnc2n1`, the inhibition [5] is reported as 19%, the inhibition [6] is reported as 17% and the inhibition [7] is reported as 9%.
`Cc1c(COC(=O)c2ccccc2)cnc2nc(N)nc(N)c12` gave a Ratio [8] of 33, an IC50 (Dihydrofolate reductase [3]) of 250 nM and an IC50 (Dihydrofolate reductase [1]) of 230 nM. It also gave an IC50 [2] of 56 nM.
In the case of `COc1ccc(C(=O)OCc2ccc3nc(N)nc(N)c3c2)c(OC)c1OC`, the IC50 (Dihydrofolate reductase [3]) is reported as 1400 nM, the IC50 (Dihydrofolate reductase [1]) is reported as 500 nM and the IC50 [2] is reported as 140 nM.
Work on `Nc1nc(N)c2nc(CO)cnc2n1` yielded an inhibition [9] of 2%, an inhibition [10] of 10% and an inhibition [11] of 12%.
`Nc1nc(N)c2cc(COC(=O)c3ccccc3)cnc2n1` gave an IC50 (Dihydrofolate reductase [3]) of 5450 nM, an IC50 (Dihydrofolate reductase [1]) of 3900 nM and an IC50 [2] of 1900 nM.
Compound `Nc1nc(N)c2cc(C(=O)O)ccc2n1` has an inhibition [12] of 3%, an inhibition [13] of 11% and an inhibition [14] of 16%.
With `CN(Cc1ccc2nc(N)nc(N)c2c1)c1ccccc1` the IC50 (Dihydrofolate reductase [3]) was 96 nM, the IC50 (Dihydrofolate reductase [1]) was 69 nM and the IC50 [2] was 11 nM.
In the case of `Nc1nc(N)c2cc(CO)ccc2n1`, the IC50 (Dihydrofolate reductase [1]) is reported as 40300 nM and the IC50 [2] is reported as 44900 nM.
Work on `Nc1nc(N)c2cc(/C=C/C(=O)Oc3ccccc3)ccc2n1` yielded an IC50 (Dihydrofolate reductase [1]) of 1290 nM and an IC50 [2] of 189 nM.
Compound `Nc1nc(N)c2cc(COC(=O)c3ccc(C(=O)O)cc3)ccc2n1` has an IC50 (Dihydrofolate reductase [3]) of 1000 nM and an IC50 [2] of 1000 nM.
`Nc1nc(N)c2cc(C(=O)OCc3ccccc3)ccc2n1` showed a Relative IC50 [4] of 1.2, an IC50 (Dihydrofolate reductase [3]) of 2500 nM and an IC50 (Dihydrofolate reductase [1]) of 420 nM. The IC50 [2] was 360 nM.
For `Nc1nc(N)c2cc(COC(=O)c3ccccc3)ccc2n1`, the Relative IC50 [4] was 3.9, the Ratio [8] was 67 and the IC50 (Dihydrofolate reductase [3]) was 600 nM. It also gave an IC50 (Dihydrofolate reductase [1]) of 390 nM and an IC50 [2] of 99 nM.
Compound `COc1ccc(C(=O)OCc2ccc3nc(N)nc(N)c3c2)cc1OC` has an IC50 (Dihydrofolate reductase [3]) of 510 nM, an IC50 (Dihydrofolate reductase [1]) of 110 nM and an IC50 [2] of 66 nM.
